Broadly, the pEC50 is the negative decadic logarithm of the EC50, by convention in mol/L. By pIC50 is commonly meant −log10 of the IC50, conventionally taken in molar units.

Molecules are shown by their SMILES. pEC50, pIC50: −log10 of the molar value.

The values below come from patent US20130029970A1 (priority 2009, published 2013).

Assay [1] deals with T1, human CB1 (hCB1) (Homo sapiens, UniProt P21554).
T1 construct: (cDNA clone) CNR01L000
Kind of assay: 35S GTPγS binding assay, hCB1 agonist. The assay is classed as biochemical. The settings on record: GTPγS agonist, HEK-293 membranes; read-out: hCB1 EC50 (GTPyS ag). In general terms: GTPγS resists hydrolysis and so accumulates on activated G proteins.

Assay [2] deals with T2, recombinant human cannabinoid receptor CB2 (Homo sapiens, UniProt P34972).
T2 construct: (cDNA clone) CNR0200000
Kind of assay: Cannabinoid receptor radioligand binding assay, [3H]-CP 55,940 displacement, hCB2. The method, boiled down: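 Receptor source: membrane pellet (40,000×g) from transfected cells, stored in HEPES pH 7.4/MgCl2/EDTA/sucrose buffer.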

Assay [3] concerns the target T3, recombinant human cannabinoid receptor CB1 (Homo sapiens, UniProt P21554).
T3 construct: (cDNA clone) CNR01L000
As to the kind of experiment: Cannabinoid receptor radioligand binding assay, [3H]-CP 55,940 displacement, hCB1. The method, boiled down: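 Displacement of 0.5 nM [3H]-CP 55,940 (1 μM unlabeled CP 55,940 for nonspecific) measured by filtration and scintillation counting. Binding ran 90 min at room temperature in pH 7.5 Tris buffer with 0.1% fatty-acid-free BSA, using recombinant hCB1 HEK-293 membranes at 2-10 μg protein.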

T1 sequence (P21554 whole entry): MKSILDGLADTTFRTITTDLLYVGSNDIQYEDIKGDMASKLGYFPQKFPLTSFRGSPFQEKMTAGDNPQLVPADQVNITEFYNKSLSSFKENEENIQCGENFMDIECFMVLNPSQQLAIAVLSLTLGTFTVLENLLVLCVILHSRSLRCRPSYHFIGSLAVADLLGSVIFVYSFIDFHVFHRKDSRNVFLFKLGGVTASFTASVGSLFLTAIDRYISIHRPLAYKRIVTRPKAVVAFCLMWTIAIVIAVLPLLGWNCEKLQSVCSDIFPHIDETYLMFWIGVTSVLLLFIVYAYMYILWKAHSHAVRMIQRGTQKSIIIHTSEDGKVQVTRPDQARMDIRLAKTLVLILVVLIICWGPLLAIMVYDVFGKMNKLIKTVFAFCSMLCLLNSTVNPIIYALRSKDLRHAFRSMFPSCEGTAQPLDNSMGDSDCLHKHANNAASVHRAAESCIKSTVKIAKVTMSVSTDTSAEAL
T3 sequence (P21554 whole entry): as above
T2 sequence (P34972 whole entry): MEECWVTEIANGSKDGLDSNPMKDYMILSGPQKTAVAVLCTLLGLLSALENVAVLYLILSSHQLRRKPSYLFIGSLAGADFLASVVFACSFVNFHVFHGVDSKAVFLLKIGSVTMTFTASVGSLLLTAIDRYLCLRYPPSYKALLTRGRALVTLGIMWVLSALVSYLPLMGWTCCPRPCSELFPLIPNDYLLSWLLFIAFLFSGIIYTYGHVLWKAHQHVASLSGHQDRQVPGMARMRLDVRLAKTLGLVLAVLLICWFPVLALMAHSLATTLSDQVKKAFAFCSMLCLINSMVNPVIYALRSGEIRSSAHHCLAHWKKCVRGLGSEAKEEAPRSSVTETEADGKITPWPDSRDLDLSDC

As to `Cc1cc2cc(C(=O)c3cccc(Cl)c3Cl)sc2n1CCc1ccccc1` [Compound 30, (2,3-Dichlorophenyl)(5-methyl-6-phenethyl-6H-thieno[2,3-b]pyrrol-2-yl)methanone], the pEC50 in assay [1] is 6.00 to 7.00. In addition, the negative-log IC50 (pIC50) in assay [2] is over 7.00; in assay [3], 6.00 to 7.00.
In the case of `Cc1cc2cc(C(=O)c3cccc(Cl)c3Cl)sc2n1CCN1CCN(C)CC1` [Compound 33, (2,3-Dichlorophenyl)(5-methyl-6-(2-(4-methylpiperazin-1-yl)ethyl)-6H-thieno[2,3-b]pyrrol-2-yl)methanone], in assay [1], the negative logarithm of the EC50 (pEC50) was over 7.00. Moreover, the pIC50 is 5.00 to 6.00 in assay [2] and under 5.00 in assay [3].
On to `Cc1cc2cc(C(=O)c3cccc(Cl)c3Cl)sc2n1S(=O)(=O)N1CCOCC1` [Compound 45, (2,3-Dichlorophenyl)(5-methyl-6-(morpholinosulfonyl)-6H-thieno[2,3-b]pyrrol-2-yl)methanone], for which the pEC50 in assay [1] was 6.00 to 7.00. The negative-log IC50 (pIC50) in assay [2] and in assay [3] was over 7.00 throughout.
In the case of `Cc1cc2cc(C(=O)c3cccc(Cl)c3Cl)sc2n1S(=O)(=O)CC1CCOCC1` [Compound 46, (2,3-Dichlorophenyl)(5-methyl-6-((tetrahydro-2H-pyran-4-yl)methylsulfonyl)-6H-thieno[2,3-b]pyrrol-2-yl)methanone], the pEC50 in assay [1] was over 7.00. The negative-log IC50 (pIC50) in assay [2] and in assay [3] was over 7.00 throughout.
Regarding `COc1ccc(C(=O)c2cc3cc(C)n(S(=O)(=O)N4CCOCC4)c3s2)cc1` [Compound 53, (4-methoxyphenyl)(5-methyl-6-(morpholinosulfonyl)-6H-thieno[2,3-b]pyrrol-2-yl)methanone], the pEC50 in assay [1] is 6.00 to 7.00. In addition, the negative-log IC50 (pIC50) in assay [2] and in assay [3] was over 7.00 in each case.
Take `COc1ccc(C(=O)c2cc3cc(C)n(S(=O)(=O)CC4CCOCC4)c3s2)cc1` [Compound 57, (4-Methoxyphenyl)(5-methyl-6-((tetrahydro-2H-pyran-4-yl)methylsulfonyl)-6H-thieno[2,3-b]pyrrol-2-yl)methanone]: in assay [1], the negative-log EC50 (pEC50) was over 7.00. Further, the negative-log IC50 (pIC50) in assay [2] and in assay [3] was over 7.00 each time.
Regarding `COc1ccc(C(=O)c2cc3cc(C)n(CC4CCOCC4)c3s2)cc1` [Compound 62, (4-Methoxyphenyl)(5-methyl-6-((tetrahydro-2H-pyran-4-yl)methyl)-6H-thieno[2,3-b]pyrrol-2-yl)methanone], the pEC50 in assay [1] is 6.00 to 7.00. The pIC50 in assay [2] was over 7.00; in assay [3], 5.00 to 6.00.
On the same counts, the results for `COc1ccc(C(=O)c2cc3cc(C)n(CCN4CCCCC4)c3s2)cc1` [Compound 78, (4-Methoxyphenyl)(5-methyl-6-(2-(piperidin-1-yl)ethyl)-6H-thieno[2,3-b]pyrrol-2-yl)methanone] are over 7.00, over 7.00 and 5.00 to 6.00.
For `COc1ccc(C(=O)c2cc3cc(C)n(CCC4CCOCC4)c3s2)cc1` [Compound 82, (4-Methoxyphenyl)(5-methyl-6-(2-(tetrahydro-2H-pyran-4-yl)ethyl)-6H-thieno[2,3-b]pyrrol-2-yl)methanone], in assay [1], the negative logarithm of the EC50 (pEC50) is 6.00 to 7.00. The negative-log IC50 (pIC50) in assay [2] was over 7.00; in assay [3], 6.00 to 7.00.
Take `COc1ccc(C(=O)c2cc3cc(C)n(CCN4CCOCC4)c3s2)c(C(F)(F)F)c1` [Compound 119, (4-Methoxy-2-(trifluoromethyl)phenyl)(5-methyl-6-(2-morpholinoethyl)-6H-thieno[2,3-b]pyrrol-2-yl)methanone]: the negative logarithm of the EC50 (pEC50) in assay [1] is 6.00 to 7.00. Moreover, the negative-log IC50 (pIC50) in assay [2] was over 7.00; in assay [3], 5.00 to 6.00.
On the same counts, the results for `COc1ccc(C(=O)c2cc3cc(C)n(CCN4CCOCC4)c3s2)c(OC)c1` [Compound 120, (2,4-Dimethoxyphenyl)(5-methyl-6-(2-morpholinoethyl)-6H-thieno[2,3-b]pyrrol-2-yl)methanone] are 6.00 to 7.00, over 7.00 and 6.00 to 7.00.
For `CCOc1ccc(C(=O)c2cc3cc(C)n(CCN4CCOCC4)c3s2)c(Cl)c1` [Compound 126, (2-chloro-4-ethoxyphenyl)(5-methyl-6-(2-morpholinoethyl)-6H-thieno[2,3-b]pyrrol-2-yl)methanone], in that order: 5.00 to 6.00, over 7.00 and 6.00 to 7.00.
On to `COc1ccc(C(=O)c2cc3cc(C)n(S(=O)(=O)CCN4CCOCC4)c3s2)cc1` [Compound 139, (4-methoxyphenyl)(5-methyl-6-(2-morpholinoethylsulfonyl)-6H-thieno[2,3-b]pyrrol-2-yl)methanone], for which the pEC50 in assay [1] was 6.00 to 7.00. The pIC50 in assay [2] is over 7.00; in assay [3] it was 6.00 to 7.00.
Turning to `COc1ccc(C(c2cc3cc(C)n(CCN4CCOCC4)c3s2)C(F)(F)F)cc1` (stereo not shown) [Compound 141, 4-(2-(5-methyl-2-(2,2,2-trifluoro-1-(4-methoxyphenyl)ethyl)-6H-thieno[2,3-b]pyrrol-6-yl)ethyl)morpholine], the pIC50 in assay [2] is 6.00 to 7.00; in assay [3] it was 5.00 to 6.00.
On the same counts, the results for `COc1ccc(C(=O)c2cc3cc(C)n(CCN4CCC(OC)C4)c3s2)cn1` (stereo not shown) [Compound 147, (6-methoxypyridin-3-yl)(6-(2-(3-methoxypyrrolidin-1-yl)ethyl)-5-methyl-6H-thieno[2,3-b]pyrrol-2-yl)methanone] are 5.00 to 6.00 and under 5.00.
Take `COc1ccc(C(=O)c2cc3cc(C)n(CCN4CCCOCC4)c3s2)cn1` [Compound 158, (6-(2-(1,4-oxazepan-4-yl)ethyl)-5-methyl-6H-thieno[2,3-b]pyrrol-2-yl)(6-methoxypyridin-3-yl)methanone]: the pEC50 in assay [1] was under 5.00. The pIC50 in assay [3] was 6.00 to 7.00.
Take `COc1ccc(C(=O)c2cc3cc(C)n(CCNC4CCOC4)c3s2)cn1` (stereo not shown) [Compound 164, (6-methoxypyridin-3-yl)(5-methyl-6-(2-((tetrahydrofuran-3-yl)amino)ethyl)-6H-thieno[2,3-b]pyrrol-2-yl)methanone]: the pEC50 in assay [1] is under 5.00. For the same compound, in assay [3], the pIC50 was 5.00 to 6.00.
On to `COc1ccc(C(=O)c2cc3cc(C)n(CCN4CCCC4)c3s2)cn1` [Compound 167, (6-methoxypyridin-3-yl)(5-methyl-6-(2-(pyrrolidin-1-yl)ethyl)-6H-thieno[2,3-b]pyrrol-2-yl)methanone], for which the pEC50 in assay [1] was under 5.00. Further, the pIC50 in assay [3] is over 7.00.
